11 compounds from PubChem BioAssay (NCI) can be followed below.

Experiment in all cases: NCI tumour cell line growth inhibition, 48 h
In test [1] the test system is A498 renal.
Test [2] has as its system CAKI-1 renal.
The subject of test [3] is CCRF-CEM leukemia.
Test [4] relates to HT29 colon.
Test [5] deals with LOX IMVI melanoma.
In test [6] the test system is SF-268 CNS.
The test system of test [7] is SF-295 CNS.
Test [8] deals with SF-539 CNS.
For test [9], the system named is SNB-75 CNS.
Test [10] deals with UACC-257 melanoma.
In test [11] the test system is DU-145 prostate.

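1) Cells in 96-well plates. 2) Compound, 48 h, 5 concentrations. 3) Linear interpolation between surrounding doses. 4) Unreached endpoint = highest concentration. GI50 marks 50% less growth. TGI denotes the concentration required for complete inhibition of growth.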

Regarding `O=c1oc2cc(O)ccc2c2oc3cc(O)ccc3c12`, the TGI in test [1] is 3.4 µM; in test [2] it was > 107 µM; in test [3] it was > 125 µM; in test [4], > 125 µM; in test [5], > 102 µM; in [6], > 82.5 µM. For the same compound, the TGI is > 125 µM in test [7], 122 µM in [8], > 125 µM in test [9] and 124 µM in [10].
As to `CC(=O)OCC1=CC2OC(=O)C3=COC(OC4OC(CO)C(O)C(O)C4O)C1C32` (configuration not stated), the TGI in test [1], in [2], in [3], in [11], in test [4] and in test [5] was > 100 µM each time. The TGI in test [6], in test [7], in test [8], in test [9] and in test [10] was > 100 µM in each case.
For the compound `C1=CC=C2NCCc3cccc(c3)CCNC3=CC=CC=CC3=NCCCCCCN=C2C=C1`, the TGI was > 100 µM in test [2]; > 100 µM in test [3]; > 100 µM in test [4]; 26.9 µM in test [5]; > 100 µM in test [6]; 49.6 µM in test [7]. Also, the TGI in [8] stood at 23.5 µM; in test [9], 49.9 µM; in test [10], 41.8 µM.
Turning to `COc1nc2ccc(CNc3ccc(C(=O)NC(CCC(=O)O)C(=O)O)cc3)cc2nc1OC` (configuration not stated), the TGI in test [1], in [3], in test [11], in test [4], in test [5] and in test [6] was > 100 µM in each case. In addition, the TGI in [7], in test [9] and in [10] was > 100 µM each time.
As to `CC(=O)OC12CC[N+]3(C)CCCCC3C1=Nc1ccccc12` (configuration not stated), the TGI in test [1], in test [2], in [3], in [11], in [4] and in [5] was > 100 µM throughout. Further, the TGI in test [6], in test [7], in [8], in test [9] and in [10] was > 100 µM in each case.
In the case of `N#Cc1ccc([N+](=O)[O-])cc1NC(N)=S`, the TGI in test [1], in test [2], in test [4], in test [6], in [7] and in test [8] was > 100 µM throughout. Moreover, the TGI in [9] was > 100 µM.
For the compound `COc1cc2c3c(n(CCCn4cncn4)c(=O)c2cc1OC)-c1cc2c(cc1C3=O)OCO2`, the GI50 in [1] was 16.8 µM; in test [3] it was < 0.01 µM; in test [11], < 0.0293 µM; in test [4] it was > 73.1 µM; in test [5], 0.0572 µM; in test [6], 99 µM. The results for the GI50 in test [7], in [9] and in test [10] were < 0.01 µM, 0.799 µM and > 100 µM, respectively. The TGI is > 100 µM in [1]; > 100 µM in test [2]; 3.5 µM in test [3]; > 34.7 µM in test [11]; > 100 µM in test [4]; > 49.3 µM in test [5]. The TGI is > 100 µM in test [6]; > 100 µM in test [7]; 19.6 µM in test [8]; 99.1 µM in [9]; > 100 µM in test [10].
With `CCCCC(=O)c1c(O)ccc2c(C)cc(=O)oc12`, the TGI in test [1], in test [2], in test [3], in test [11], in test [4] and in [5] was > 100 µM each time. The TGI in [6], in test [7], in test [8], in test [9] and in test [10] was > 100 µM throughout.
`CCOc1ccccc1Nc1ccc(N)cc1S(=O)(=O)O`: the TGI in test [1], in [2], in test [11], in test [4], in test [5] and in [6] was > 100 µM in each case. Further, the TGI in test [7], in [9] and in test [10] was > 100 µM throughout.
With `COc1ccc(C(=O)CCN(C)C)c2ccccc12`, the TGI is > 88.8 µM in test [1]; 17.4 µM in test [2]; 11.8 µM in [3]; > 62 µM in [11]; 66.7 µM in test [4]; 42.8 µM in test [5]. Also, the TGI in [6] is 55.4 µM; in test [7], > 100 µM; in [8], 33.1 µM; in [9], 61.5 µM; in [10], > 58.7 µM.
In the case of `CC1(O)C2(c3ccccc3)CCC[N+]1(C)CC2` (configuration not stated), the TGI in test [1], in test [2], in test [3], in [11], in test [4] and in [5] was > 100 µM throughout. In addition, the TGI in test [7], in [9] and in [10] was > 100 µM each time.
